Measured values published in ChEMBL document CHEMBL1201862, “PubChem BioAssay data set” (2004).
The source made the active and inactive calls.

Key:
[1] = target: Eukaryotic translation initiation factor 4E (Mus musculus, UniProt P63073); assay: eIF4E–eIF4G protein interaction inhibitors, dose response, biochemical, TR-FRET (AID 855); format: functional;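 further: potency for disrupting eIF4E binding to eIF4GI seen as loss of FRET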
Protein skinhead-1 = target: T1, Protein skinhead-1 (Caenorhabditis elegans, UniProt P34707); format: functional
T1 sequence (P34707 whole entry): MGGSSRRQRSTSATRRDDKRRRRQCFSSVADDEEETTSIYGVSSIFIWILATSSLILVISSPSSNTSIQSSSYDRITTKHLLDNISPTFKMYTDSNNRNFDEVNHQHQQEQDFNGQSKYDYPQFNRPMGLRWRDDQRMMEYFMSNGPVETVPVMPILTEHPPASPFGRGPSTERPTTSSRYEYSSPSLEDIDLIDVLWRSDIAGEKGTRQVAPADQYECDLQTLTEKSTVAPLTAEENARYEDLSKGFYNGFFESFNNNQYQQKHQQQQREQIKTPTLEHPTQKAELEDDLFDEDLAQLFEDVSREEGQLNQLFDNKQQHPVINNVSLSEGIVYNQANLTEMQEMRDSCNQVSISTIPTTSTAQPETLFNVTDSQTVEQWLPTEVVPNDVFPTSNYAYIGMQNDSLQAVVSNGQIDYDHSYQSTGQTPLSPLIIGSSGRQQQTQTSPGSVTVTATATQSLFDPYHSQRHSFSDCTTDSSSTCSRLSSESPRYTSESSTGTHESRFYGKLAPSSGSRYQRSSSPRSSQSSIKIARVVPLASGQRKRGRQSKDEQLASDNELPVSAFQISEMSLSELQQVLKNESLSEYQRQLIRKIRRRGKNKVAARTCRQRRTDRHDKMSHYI

[2] = cytotoxicity in KRAS-transformed pancreatic duct cells, primary screen, cell-based, fluorescence, HTS (AID 431); format: functional; settings: Homo sapiens;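 further: cell line used: HPDE-C7K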
H9c2 = assay: cells; format: functional, cell-based; settings: Rattus norvegicus, H9c2, Myocardium;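 further: confirmatory concentration-response retest of ultra-high-throughput screening hits for modulation of myocardial damage; cell death induced by hydrogen peroxide oxidative stress; compound pretreatment for 60 min then peroxide exposure for 2 h; potency is for protecting the cells against peroxide damage rather than for killing them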
[3] = cytotoxicity in HPDE-C7 cells, cell-based, fluorescence, HTS (AID 430); format: functional; settings: Homo sapiens
[4] = inhibitors of intracellular T. cruzi replication, confirmation, NIH3T3 host cells, beta-gal luminescence (AID 2044); format: functional, cell-based;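 further: intracellular parasites grown in NIH/3T3 mouse fibroblasts as host cells; luminescent beta-galactosidase reporter signal from transgenic T. cruzi replicating inside host cells; inhibitors lower the luminescence signal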
cells [5] = format: functional
[6] = THP-1 cell cytotoxicity, dose response, cytotoxicity control for non-replicating M. tuberculosis project (AID 489025); format: functional
[7] = cytotoxicity toward NIH3T3 fibroblasts, dose response, counter-screen, cell-based, ATP luminescence, mouse fibroblasts (AID 2010); format: functional;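 further: cells exposed to compound for about 90 hours before reading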
[8] = target: T2, E3 ubiquitin-protein ligase XIAP (Homo sapiens, UniProt P98170); assay: Counter Screen using XIAP-Bir3 for Chemical Antagonists of Bir1/2 domains of IAP-family anti-apoptotic proteins. [Related pubchem assays (depositor defined):AID1018, AID1449, AID1514, AID1638, AID1749, AID1750, AID488957, AID488963]
[9] = target: T2, E3 ubiquitin-protein ligase XIAP; assay: XIAP antagonists, biochemical, IAP family, fluorescence polarization (AID 1018); format: functional
Prothrombin = Prothrombin (Homo sapiens, UniProt P00734); assay: Thrombin 1536 HTS Dose Response Confirmation. [Related pubchem assays: 1046 (Thrombin 1536 HTS; hits were confirmed in this assay)]; format: functional
[10] = target: T3, Corticotropin-releasing factor receptor 2/Corticotropin-releasing factor-binding protein (Homo sapiens, UniProt P24387+Q13324); assay: activators of CRF receptor 2 with binding protein – uHTS hits, confirmation (AID 602473); format: functional; settings: read-out: EC50_Mean
T3 sequence (Q13324 whole entry): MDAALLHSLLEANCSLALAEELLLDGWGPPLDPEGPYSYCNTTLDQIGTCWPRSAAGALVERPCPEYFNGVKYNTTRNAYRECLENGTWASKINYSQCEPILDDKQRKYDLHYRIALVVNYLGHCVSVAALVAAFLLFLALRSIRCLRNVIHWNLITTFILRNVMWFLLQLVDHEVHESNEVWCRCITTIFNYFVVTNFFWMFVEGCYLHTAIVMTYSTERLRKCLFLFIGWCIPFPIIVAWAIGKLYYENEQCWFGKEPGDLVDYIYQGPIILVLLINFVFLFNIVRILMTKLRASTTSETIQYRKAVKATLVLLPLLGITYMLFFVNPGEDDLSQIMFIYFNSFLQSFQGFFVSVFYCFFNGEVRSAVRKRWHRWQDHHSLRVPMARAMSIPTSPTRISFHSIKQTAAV
T3 sequence (P24387 whole entry): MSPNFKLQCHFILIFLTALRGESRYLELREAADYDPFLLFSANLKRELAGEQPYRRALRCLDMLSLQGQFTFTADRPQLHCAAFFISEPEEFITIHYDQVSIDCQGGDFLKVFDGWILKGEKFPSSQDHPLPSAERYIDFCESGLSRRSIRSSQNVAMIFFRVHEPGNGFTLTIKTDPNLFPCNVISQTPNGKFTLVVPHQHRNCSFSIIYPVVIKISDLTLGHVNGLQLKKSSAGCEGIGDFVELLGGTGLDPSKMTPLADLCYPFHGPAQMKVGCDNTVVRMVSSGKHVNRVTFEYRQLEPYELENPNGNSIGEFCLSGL

Cytochrome P450 2D6 = Cytochrome P450 2D6 (Homo sapiens, UniProt P10635);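 further: CYP2D6 member of a cytochrome P450 panel assay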
Ephrin type-A receptor 4 = Ephrin type-A receptor 4 (Mus musculus, UniProt Q03137); assay: inhibitors of EphA4 binding to KYL peptide, primary screen, biochemical, colorimetric, mouse EphA4 (AID 689); format: functional
[11] = cytotoxicity in HEK-293T cells, dose response, cytotoxicity control for TCR NF-kB inhibitor project, luminescence, T-cell screen hits (AID 489026); format: functional, cell-based;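 further: cells exposed to compound about 14 hours before the viability readout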
HEK293 [12] = assay: cells; format: functional, cell-based; settings: Homo sapiens
HEK293 [13] = assay: NOD1 signaling inhibitors, primary screen, cell-based, luminescence, uHTS (AID 1578); format: functional; settings: Homo sapiens
cells [14] = assay: cells
HEK293 [15] = assay: cells; format: functional, cell-based; settings: Homo sapiens; remark: listed apart in the source
[16] = target: T4, Short transient receptor potential channel 4 (Mus musculus, UniProt Q9QUQ5); assay: mouse TRPC4 channel activators, dose response, cell-based, HEK293 TRPC4/mu-opioid, Fluo-4 calcium (AID 434937); format: functional
T4 sequence (Q9QUQ5 whole entry): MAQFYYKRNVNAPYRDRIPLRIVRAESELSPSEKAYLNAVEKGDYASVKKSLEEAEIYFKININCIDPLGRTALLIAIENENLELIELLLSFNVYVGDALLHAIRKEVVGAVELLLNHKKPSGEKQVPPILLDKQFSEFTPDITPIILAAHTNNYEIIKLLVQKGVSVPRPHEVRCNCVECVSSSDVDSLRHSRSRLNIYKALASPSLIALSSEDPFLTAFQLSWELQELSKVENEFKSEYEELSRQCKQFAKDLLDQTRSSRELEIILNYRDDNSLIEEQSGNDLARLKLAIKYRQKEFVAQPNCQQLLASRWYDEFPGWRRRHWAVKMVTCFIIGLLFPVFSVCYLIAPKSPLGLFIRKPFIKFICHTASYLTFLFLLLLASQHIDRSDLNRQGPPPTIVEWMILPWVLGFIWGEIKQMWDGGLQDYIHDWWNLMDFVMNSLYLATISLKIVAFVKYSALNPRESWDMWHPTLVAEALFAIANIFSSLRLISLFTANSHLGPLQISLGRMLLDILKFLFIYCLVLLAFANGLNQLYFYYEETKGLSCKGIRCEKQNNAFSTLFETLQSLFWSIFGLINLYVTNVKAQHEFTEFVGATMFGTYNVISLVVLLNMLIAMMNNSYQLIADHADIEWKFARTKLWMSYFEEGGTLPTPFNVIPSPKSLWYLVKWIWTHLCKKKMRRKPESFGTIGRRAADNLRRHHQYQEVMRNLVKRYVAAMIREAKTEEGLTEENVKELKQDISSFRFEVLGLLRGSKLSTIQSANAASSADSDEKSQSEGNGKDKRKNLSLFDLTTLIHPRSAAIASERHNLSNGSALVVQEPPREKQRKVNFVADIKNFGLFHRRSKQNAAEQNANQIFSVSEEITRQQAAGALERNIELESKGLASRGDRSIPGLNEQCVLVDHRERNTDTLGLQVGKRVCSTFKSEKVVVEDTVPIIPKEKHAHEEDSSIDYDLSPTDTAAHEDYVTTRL

T2 sequence (P98170 whole entry): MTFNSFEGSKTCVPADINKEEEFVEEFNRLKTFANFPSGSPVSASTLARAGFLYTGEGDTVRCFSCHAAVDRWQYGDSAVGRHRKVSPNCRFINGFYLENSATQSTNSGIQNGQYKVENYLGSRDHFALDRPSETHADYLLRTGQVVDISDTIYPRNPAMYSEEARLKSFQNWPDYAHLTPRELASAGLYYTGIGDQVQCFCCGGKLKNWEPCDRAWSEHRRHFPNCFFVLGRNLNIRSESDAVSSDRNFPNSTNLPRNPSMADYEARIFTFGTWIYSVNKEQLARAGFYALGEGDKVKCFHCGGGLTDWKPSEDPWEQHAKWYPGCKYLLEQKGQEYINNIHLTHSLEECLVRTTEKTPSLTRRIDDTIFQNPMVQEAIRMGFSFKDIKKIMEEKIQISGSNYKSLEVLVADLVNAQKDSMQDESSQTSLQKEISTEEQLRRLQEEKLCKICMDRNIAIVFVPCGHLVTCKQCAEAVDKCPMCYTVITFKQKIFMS
Chain of Ephrin type-A receptor 4 (Q03137 whole entry): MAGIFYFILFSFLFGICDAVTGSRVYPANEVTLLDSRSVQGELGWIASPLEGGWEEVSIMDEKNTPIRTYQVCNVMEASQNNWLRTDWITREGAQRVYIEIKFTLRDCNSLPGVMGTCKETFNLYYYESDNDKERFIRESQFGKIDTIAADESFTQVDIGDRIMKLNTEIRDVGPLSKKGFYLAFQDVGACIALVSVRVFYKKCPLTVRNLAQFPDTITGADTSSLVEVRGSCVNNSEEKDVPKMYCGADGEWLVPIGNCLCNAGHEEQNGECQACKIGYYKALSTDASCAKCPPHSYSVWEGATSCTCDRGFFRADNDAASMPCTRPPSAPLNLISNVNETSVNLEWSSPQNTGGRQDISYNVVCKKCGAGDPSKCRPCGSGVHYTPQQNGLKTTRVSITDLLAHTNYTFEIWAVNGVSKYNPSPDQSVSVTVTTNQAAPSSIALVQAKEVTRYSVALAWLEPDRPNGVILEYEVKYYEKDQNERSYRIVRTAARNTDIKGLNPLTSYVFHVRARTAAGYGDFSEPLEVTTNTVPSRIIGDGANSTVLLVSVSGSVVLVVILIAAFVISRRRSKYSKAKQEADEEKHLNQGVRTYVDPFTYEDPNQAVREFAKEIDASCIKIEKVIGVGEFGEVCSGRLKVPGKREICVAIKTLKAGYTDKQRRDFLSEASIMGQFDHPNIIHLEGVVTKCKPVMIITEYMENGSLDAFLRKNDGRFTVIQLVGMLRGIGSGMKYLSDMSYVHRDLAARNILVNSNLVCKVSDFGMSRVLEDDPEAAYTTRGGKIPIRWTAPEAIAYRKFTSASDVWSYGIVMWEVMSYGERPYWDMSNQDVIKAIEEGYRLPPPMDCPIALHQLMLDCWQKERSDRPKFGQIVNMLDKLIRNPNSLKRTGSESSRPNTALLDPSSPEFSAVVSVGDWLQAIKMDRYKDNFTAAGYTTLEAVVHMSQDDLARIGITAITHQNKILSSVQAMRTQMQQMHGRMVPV
Chain of Eukaryotic translation initiation factor 4E (P63073 whole entry): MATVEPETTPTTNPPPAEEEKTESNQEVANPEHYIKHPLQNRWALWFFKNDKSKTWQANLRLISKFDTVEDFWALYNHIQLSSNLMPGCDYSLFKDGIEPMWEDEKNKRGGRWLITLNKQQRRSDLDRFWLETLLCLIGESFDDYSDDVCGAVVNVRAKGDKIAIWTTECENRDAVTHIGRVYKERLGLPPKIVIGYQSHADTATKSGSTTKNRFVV
Chain of Cytochrome P450 2D6 (P10635 whole entry): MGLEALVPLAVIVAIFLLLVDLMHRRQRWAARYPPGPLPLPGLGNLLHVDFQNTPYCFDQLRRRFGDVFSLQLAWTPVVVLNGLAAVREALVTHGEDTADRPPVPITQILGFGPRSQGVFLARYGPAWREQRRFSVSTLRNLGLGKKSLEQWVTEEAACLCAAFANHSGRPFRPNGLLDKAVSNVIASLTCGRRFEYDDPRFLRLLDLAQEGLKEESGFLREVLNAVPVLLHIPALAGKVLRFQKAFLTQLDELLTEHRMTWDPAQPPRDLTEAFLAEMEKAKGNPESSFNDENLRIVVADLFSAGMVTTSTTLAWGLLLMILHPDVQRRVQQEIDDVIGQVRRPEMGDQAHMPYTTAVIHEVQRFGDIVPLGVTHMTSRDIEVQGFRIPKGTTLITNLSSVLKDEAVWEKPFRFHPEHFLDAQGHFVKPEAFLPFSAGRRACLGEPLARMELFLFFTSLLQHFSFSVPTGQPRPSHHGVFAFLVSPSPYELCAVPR

With `Cc1nnc(=O)[nH]c1NCc1ccco1` the IC50 [1] was > 64 µM (inactive).
With `CCC(=O)N1CCN(c2ccc(NC(=O)c3cc4ccccc4o3)cc2Cl)CC1` the IC50 (Protein skinhead-1) was > 100 µM (inactive), the EC50 [2] was 10.9 µM (active) and the IC50 (H9c2) was 15.9 µM (active). The EC50 [3] was 11.5 µM (active).
For `CC(C)(C)c1ccccc1OCCOCCN1CCCCCC1`, the EC50 [4] was 0.651 µM (active), the IC50 (cells [5]) was > 50 µM (active) and the CC50 [6] was 27.6 µM (active). For the same molecule, the EC50 [7] was > 60 µM (inconclusive).
With `O=C(NCc1nnc(S)n1-c1ccc(F)cc1)c1ccco1` the IC50 [8] was > 100 µM (inactive) and the IC50 [9] was > 100 µM (not active).
For `Cc1ccc(-c2noc(CN3CCC(C(N)=O)CC3)n2)cc1`, the IC50 (Prothrombin) was > 50 µM (not active) and the EC50 [10] was > 53 µM (inactive).
In the case of `CCOc1ccc(/C=C/C2=Cc3c(sc(NC(=O)CSc4nnc(N)[nH]4)c3C#N)C(C)(C)C2)cc1`, the AC50 (Cytochrome P450 2D6) is reported as 1.78 µM (inconclusive), the IC50 (Protein skinhead-1) is reported as 60.8 µM (inactive) and the IC50 (Ephrin type-A receptor 4) is reported as 1.79 µM (active).
For `COc1ccc(S(=O)(=O)CCc2nnc(NC(=O)c3cccs3)s2)cc1`, the IC50 (Prothrombin) was > 50 µM (not active).
With `CCCC[n+]1c(C=C2C=Cc3ccccc3N2CC)sc2ccccc21` the EC50 [4] was < 0.1 µM (active), the IC50 [11] was > 80 µM (inactive) and the IC50 (HEK293 [12]) was 1.96 µM (active). For the same molecule, the EC50 (HEK293 [13]) was 2.17 µM (active), the EC50 (cells [14]) was 0.058 µM (active) and the IC50 (HEK293 [15]) was 11.1 µM (active). The EC50 [7] was > 60 µM (not active) and the EC50 [16] was 7.5 µM (active).
In the case of `CCOc1ccc(NC(=O)c2ccc(CNc3c(N4CCCC4)c(=O)c3=O)cc2)cc1`, the IC50 (Prothrombin) is reported as > 50 µM (not active).
